Test results published in patent US8937073B2, “Disubstituted tetrahydrofuranyl compounds and their use as B1-receptor antagonists” (Boehringer Ingelheim International GmbH, priority 2010, dated 2015).

Biological target: T1, cynomolgus B1 receptor (Macaca fascicularis, UniProt Q3BCU0)
T1 construct: expressed in transfected cells; host or cells: CHO cells
T1 sequence (Q3BCU0 1-352): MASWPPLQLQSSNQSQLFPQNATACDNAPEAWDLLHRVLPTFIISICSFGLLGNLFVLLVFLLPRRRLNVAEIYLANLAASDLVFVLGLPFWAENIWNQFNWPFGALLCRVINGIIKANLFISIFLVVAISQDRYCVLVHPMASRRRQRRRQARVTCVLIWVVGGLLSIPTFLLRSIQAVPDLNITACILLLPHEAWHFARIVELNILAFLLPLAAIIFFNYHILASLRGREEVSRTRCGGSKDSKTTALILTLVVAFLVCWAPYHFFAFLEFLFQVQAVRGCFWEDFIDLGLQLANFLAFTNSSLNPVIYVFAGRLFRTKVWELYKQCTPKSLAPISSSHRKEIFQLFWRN
Experiment: cynoBK1-receptor binding assay
Conditions: homogenate of CHO cells expressing the cynomolgus B1 receptor; radioligand 0.5 to 5.0 nM kallidine (DesArg10,Leu9), [3,4-Prolyl-3,43H(N)]; 60-180 minutes at ambient temperature
Method: Description of the Method of Binding the cynoBK1-Receptor
CHO cells that express the cynomolgus B1 receptor are cultivated in “HAM′S F-12 Medium”. The medium is removed from confluent cultures, the cells are washed with PBS buffer, scraped off or detached using Versene and isolated by centrifuging. Then the cells are homogenised in suspension, the homogenate is centrifuged and resuspended. After the protein content has been determined 200 μl of the homogenate (50 to 250 μg protein/assay) are incubated for 60-180 minutes at ambient temperature with 0.5 to 5.0 nM kallidine (DesArg10,Leu9), [3,4-Prolyl-3,43H(N)] and increasing concentrations of the test substance in a total volume of 250 μl. The incubation is stopped by rapid filtration through GF/B glass fibre filters that have been pre-treated with polyethyleneimine (0.3%). The radioactivity bound to the protein is measured with a TopCount NXT. The radioactivity bound in the presence of 1.0 μM kallidine (DesArg10) is defined as non-specific binding. The concentration binding curve may be analysed using computer-aided non-linear curve fitting to determine the corresponding Ki value for the test substance.
Test Results of the cynoBK1-Receptor Binding Assay: […]

| Compound | Ki |
| --- | --- |
| COc1ccc(Nc2ccc(CNC(=O)[C@]3(NC(=O)c4cn[nH]c(=O)c4)CCOC3)c(F)c2)c(C(F)(F)F)c1 [Example 21] | 1.6 nM |
| (S)-5-amino-N-(3-{[3-chloro-5-(4-methoxy-2-trifluoromethyl-phenylamino)-pyridin-2-yl-methyl]-carbamoyl}-tetrahydrofuran-3-yl)-nicotinamide [Example 6] | 18 nM |
| (S)-5-amino-N-(3-{[3-fluoro-5-(4-methoxy-2-trifluoromethyl-phenylamino)-pyridin-2-ylmethyl]-carbamoyl}-tetrahydrofuran-3-yl)-nicotinamide [Example 3] | 4.7 nM |
| (S)-5-amino-N-{3-[4-(4-methoxy-2-trifluoromethyl-phenylamino)-benzylcarbamoyl]-tetrahydrofuran-3-yl}-nicotinamide [Example 4] | 3.6 nM |
| (S)-6-oxo-1,6-dihydro-pyridazine-4-carboxylic acid-{3-[2-fluoro-4-(4-methoxy-2-trifluoromethyl-phenylamino)-benzylcarbamoyl]-tetrahydrofuran-3-yl}-amide [Example 1] | 1 nM |
